molecular target: Mcl-1 (Homo sapiens (Human), UniProt Q07820); assay: Fluorescence polarization anisotropy (FPA) competition assay, FITC-Bak or FITC-Bim BH3 peptide; format: binding; conditions: read-out: Ki for Inhibition of Mcl-1 by FPA assay
Sequence (Q07820 172-327): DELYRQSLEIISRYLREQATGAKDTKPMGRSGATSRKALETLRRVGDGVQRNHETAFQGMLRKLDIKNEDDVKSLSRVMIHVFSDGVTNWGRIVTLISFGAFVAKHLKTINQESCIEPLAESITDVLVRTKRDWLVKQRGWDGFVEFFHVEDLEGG

Q: How did the Ki turn out when `Cc1cc(OCCCc2c3n(c4c(-c5c(C)nn(C)c5C)c(Cl)ccc24)[C@H](C)CN(c2ccc(C(=O)O)c(Cl)c2)C3=O)cc(C)c1Cl` [Example 35, (R)-2-chloro-4-(7-chloro-10-(3-(4-chloro-3,5-dimethylphenoxy)propyl)-4-methyl-1-oxo-6-(1,3,5-trimethyl-1H-pyrazol-4-yl)-3,4-dihydropyrazino[1,2-a]indol-2(1H)-yl)benzoic acid] was run?
A: The Ki was 1.5 nM.

Q: How did the Ki turn out when `COCCCc1c2n(c3c(-c4c(C)nn(C)c4C)c(Cl)ccc13)[C@H](C)CN(c1cn(C)c3ccc(C(=O)O)cc13)C2=O` [Example 406, (R)-3-(7-Chloro-10-(3-methoxypropyl)-4-methyl-1-oxo-6-(1,3,5-trimethyl-1H-pyrazol-4-yl)-3,4-dihydropyrazino[1,2-a]indol-2(1H)-yl)-1-methyl-1H-indole-5-carboxylic acid] was run?
A: The Ki was greater than 250 nM.

Q: Which Ki does the source give for `Cc1cc(OCCCc2c3n(c4c(-c5c(C)nn(C)c5C)c(Cl)ccc24)CCCN(c2cc(C(=O)O)c4cnn(CCO)c4c2)C3=O)cc(C)c1Cl` [Example 107, 6-[8-Chloro-11-[3-(4-chloro-3,5-dimethyl-phenoxy)propyl]-1-oxo-7-(1,3,5-trimethylpyrazol-4-yl)-4,5-dihydro-3H-[1,4]diazepino[1,2-a]indol-2-yl]-1-(2-hydroxyethyl)indazole-4-carboxylic acid] here?
A: Its Ki is less than 1 nM.

Q: `Cc1cc(OCCCc2c3n(c4c(-c5c(C)nn(C)c5C)c(Cl)ccc24)[C@H](C)CN(c2cn(C)c4cc(C(F)(F)F)ccc24)C3=O)cc(C)c1Cl` [Example 199, (4R)-7-chloro-10-[3-(4-chloro-3,5-dimethyl-phenoxy)propyl]-4-methyl-2-[1-methyl-6-(trifluoromethyl)indol-3-yl]-6-(1,3,5-trimethylpyrazol-4-yl)-3,4-dihydropyrazino[1,2-a]indol-1-one] was tested. Which Ki did it give?
A: The Ki was 12 nM.

Q: `Cc1cc(OCCCc2c3n(c4c(-c5c(C)nn(C)c5C)c(Cl)ccc24)CCCN(c2cccc4c(C#N)cn(C)c24)C3=O)cc(C)c1Cl` [Example 6, 7-[8-Chloro-11-[3-(4-chloro-3,5-dimethyl-phenoxy)propyl]-1-oxo-7-(1,3,5-trimethylpyrazol-4-yl)-4,5-dihydro-3H-[1,4]diazepino[1,2-a]indol-2-yl]-1-methyl-indole-3-carbonitrile] was tested. Which Ki did it give?
A: The Ki was 54 nM.

Q: With `Cc1cc(OCCCc2c(C(=O)N3CCN(c4cncc(C(=O)O)c4)CC3)n(Cc3cccnc3)c3c(-c4c(C)nn(C)c4C)c(Cl)ccc23)cc(C)c1Cl` [Example 734, 5-(4-(6-chloro-3-(3-(4-chloro-3,5-dimethylphenoxy)propyl)-1-(pyridin-3-ylmethyl)-7-(1,3,5-trimethyl-1H-pyrazol-4-yl)-1H-indole-2-carbonyl)piperazin-1-yl)nicotinic acid] as the compound, how does the Ki read?
A: Its Ki is greater than 200 nM.

Q: `Cc1cc(OCCCc2c(C(=O)N3CCN(c4cccc(C(=O)O)c4)CC3)[nH]c3c(-c4c(C)nn(C)c4C)c(Cl)ccc23)cc(C)c1Cl` [Example 732, 3-(4-(6-chloro-3-(3-(4-chloro-3,5-dimethylphenoxy)propyl)-7-(1,3,5-trimethyl-1H-pyrazol-4-yl)-1H-indole-2-carbonyl)piperazin-1-yl)benzoic acid] was tested. Which Ki did it give?
A: The Ki was 38 nM.

tested on: H929 human cancer cell lines; assay: Cellular viability / proliferation (Cell TiterGlo, 72 h); format: cell-based; conditions: Homo sapiens, NCI-H929, 72 h, read-out: GI50 on cellular proliferation of H929 human cancer cell lines, H929 cells, 72 h, Cell TiterGlo, 10% FBS
Protocol: Cellular Viability of Human Tumor Cell Lines
To evaluate compound effect on cellular proliferation, cells were plated at 1,000 cells/well in 96-well tissue culture plates in a total volume of 90 μL medium supplemented with 10% FBS (Sigma, Saint Louis, Mo.). 24 hours later, 10 μL of compound (in a 2-fold serial dilution) is added to the cells for a top concentration of 50 μM and a final DMSO concentration <1%. After 72 hours, 50 μL of Cell TiterGlo (Promega, Madison, Wis., USA) reagent is added to each well and plates are incubated at room temperature, in the dark, for 30 minutes. Luminescence is measured on a BioTek Cytation 3. Luminescence values are imported into a template in XLFit (Guildford, Surrey, UK) that uses a four-parameter fit to generate an IC50 value for each compound dilution series on the plate.

Q: With `COCCn1c(C(=O)O)cc2cc(C)cc(N3C[C@@H](C)n4c(c(CCCOc5cc(C)c(Cl)c(C)c5)c5ccc(Cl)c(-c6c(C)nc(CN7CCN(C)C(=O)C7)nc6C)c54)C3=O)c21` [Example 729, (R)-7-(7-chloro-10-(3-(4-chloro-3,5-dimethylphenoxy)propyl)-6-(4,6-dimethyl-2-((4-methyl-3-oxopiperazin-1-yl)methyl)pyrimidin-5-yl)-4-methyl-1-oxo-3,4-dihydropyrazino[1,2-a]indol-2(1H)-yl)-1-(2-methoxyethyl)-5-methyl-1H-indole-2-carboxylic acid] as the compound, how does the GI50 read?
A: Its GI50 is 260 nM.

Q: How did the GI50 turn out when `Cc1cc(OCCCc2c3n(c4c(-c5c(C)nn(C)c5C)c(Cl)ccc24)CCCN(c2ccc(C(=O)O)c4ccn(C)c24)C3=O)cc(C)c1Cl` [Example 55, 7-(8-Chloro-11-(3-(4-chloro-3,5-dimethylphenoxy)propyl)-1-oxo-7-(1,3,5-trimethyl-1H-pyrazol-4-yl)-4,5-dihydro-1H-[1,4]diazepino[1,2-a]indol-2(3H)-yl)-1-methyl-1H-indole-4-carboxylic acid] was run?
A: Its GI50 is 5700 nM.

Q: Which GI50 does the source give for `COc1ccc(N2C[C@@H](C)n3c(c(CCCOc4cc(C)c(Cl)c(C)c4)c4ccc(Cl)c(-c5c(C)nc(CN6CCN(C)CC6)nc5C)c43)C2=O)c2c1cc(C(=O)O)n2Cc1ccccn1` [Example 492, (R)-7-(7-Chloro-10-(3-(4-chloro-3,5-dimethylphenoxy)propyl)-6-(4,6-dimethyl-2-((4-methylpiperazin-1-yl)methyl)pyrimidin-5-yl)-4-methyl-1-oxo-3,4-dihydropyrazino[1,2-a]indol-2(1H)-yl)-4-methoxy-1-(pyridin-2-ylmethyl)-1H-indole-2-carboxylic acid] here?
A: The GI50 was 360 nM.

Q: With `Cc1cc(N2C[C@@H](C)n3c(c(CCCOc4cc(C)c(Cl)c(C)c4)c4ccc(Cl)c(-c5c(C)nn(C)c5C)c43)C2=O)c2c(c1)cc(C(=O)O)n2CCN1CCOCC1` [Example 597, (R)-7-(7-chloro-10-(3-(4-chloro-3,5-dimethylphenoxy)propyl)-4-methyl-1-oxo-6-(1,3,5-trimethyl-1H-pyrazol-4-yl)-3,4-dihydropyrazino[1,2-a]indol-2(1H)-yl)-5-methyl-1-(2-morpholinoethyl)-1H-indole-2-carboxylic acid] as the compound, how does the GI50 read?
A: Its GI50 is 690 nM.

Q: How did the GI50 turn out when `Cc1cc(OCCCc2c3n(c4c(-c5c(C)nn(C)c5C)c(Cl)ccc24)CCCN(c2cn(C)c4ccc(C(=O)O)cc24)C3=O)cc(C)c1Cl` [Example 80, 3-(8-Chloro-11-(3-(4-chloro-3,5-dimethylphenoxy)propyl)-1-oxo-7-(1,3,5-trimethyl-1H-pyrazol-4-yl)-4,5-dihydro-1H-[1,4]diazepino[1,2-a]indol-2(3H)-yl)-1-methyl-1H-indole-5-carboxylic acid] was run?
A: Its GI50 is 250 nM.

Q: Which GI50 does the source give for `Cc1cc(OCCCc2c3n(c4c(-c5c(C)nn(C)c5C)c(Cl)ccc24)CCCN(c2cn(C)c4cc(C(=O)O)ccc24)C3=O)cc(C)c1Cl` [Example 68, 3-(8-Chloro-11-(3-(4-chloro-3,5-dimethylphenoxy)propyl)-1-oxo-7-(1,3,5-trimethyl-1H-pyrazol-4-yl)-4,5-dihydro-1H-[1,4]diazepino[1,2-a]indol-2(3H)-yl)-1-methyl-1H-indole-6-carboxylic acid] here?
A: The GI50 was 350 nM.

Q: How did the GI50 turn out when `Cc1cc(OCCCc2c3n(c4c(-c5c(C)nn(C)c5C)c(Cl)ccc24)[C@H](C)CN(c2cc(N(C)C(=O)CN4CCCCC4)cc4c(C(=O)O)cn(C)c24)C3=O)cc(C)c1Cl` [Example 612, (R)-7-(7-chloro-10-(3-(4-chloro-3,5-dimethylphenoxy)propyl)-4-methyl-1-oxo-6-(1,3,5-trimethyl-1H-pyrazol-4-yl)-3,4-dihydropyrazino[1,2-a]indol-2(1H)-yl)-1-methyl-5-(N-methyl-2-(piperidin-1-yl)acetamido)-1H-indole-3-carboxylic acid] was run?
A: Its GI50 is 7600 nM.

Q: Which GI50 does the source give for `Cc1cc(OCCCc2c3n(c4c(-c5c(C)n[nH]c5C)c(Cl)ccc24)[C@H](C)CN(c2cccc4c(C(=O)O)cn(C)c24)C3=O)cc(C)c1Cl` [Example 108, (R)-7-(7-chloro-10-(3-(4-chloro-3,5-dimethylphenoxy)propyl)-6-(3,5-dimethyl-1H-pyrazol-4-yl)-4-methyl-1-oxo-3,4-dihydropyrazino[1,2-a]indol-2(1H)-yl)-1-methyl-1H-indole-3-carboxylic acid] here?
A: The GI50 was 880 nM.

Q: With `Cc1cc(OCCCc2c3n(c4c(-c5c(C)nn(C)c5C)c(Cl)ccc24)[C@H](C)CN(c2cn(C)c4ccc(C(=O)O)cc24)C3=O)cc(C)c1Cl` [Example 76, (R)-3-(7-Chloro-10-(3-(4-chloro-3,5-dimethylphenoxy)propyl)-4-methyl-1-oxo-6-(1,3,5-trimethyl-1H-pyrazol-4-yl)-3,4-dihydropyrazino[1,2-a]indol-2(1H)-yl)-1-methyl-1H-indole-5-carboxylic acid] as the compound, how does the GI50 read?
A: The GI50 was less than 200 nM.

Q: For `Cc1cc(OCCCc2c3n(c4c(-c5c(C)nn(C)c5C)c(Cl)ccc24)CCCN(Cc2cc(C(=O)O)ccn2)C3=O)cc(C)c1Cl` [Example 43, 2-((8-Chloro-11-(3-(4-chloro-3,5-dimethylphenoxy)propyl)-1-oxo-7-(1,3,5-trimethyl-1H-pyrazol-4-yl)-4,5-dihydro-1H-[1,4]diazepino[1,2-a]indol-2(3H)-yl)methyl)isonicotinic acid], which GI50 is on record?
A: Its GI50 is 9400 nM.

Q: With `Cc1cccc(Cn2c(C(=O)O)cc3cc(OCCN(C)C)cc(N4C[C@@H](C)n5c(c(CCCOc6cc(C)c(Cl)c(C)c6)c6ccc(Cl)c(-c7c(C)nn(C)c7C)c65)C4=O)c32)n1` [Example 592, (R)-7-(7-chloro-10-(3-(4-chloro-3,5-dimethylphenoxy)propyl)-4-methyl-1-oxo-6-(1,3,5-trimethyl-1H-pyrazol-4-yl)-3,4-dihydropyrazino[1,2-a]indol-2(1H)-yl)-5-(2-(dimethylamino)ethoxy)-1-((6-methylpyridin-2-yl)methyl)-1H-indole-2-carboxylic acid] as the compound, how does the GI50 read?
A: The GI50 was 880 nM.

same assay, conditions: read-out: GI50 on cellular proliferation of H929 human cancer cell lines; H929 cells, 72 h, Cell TiterGlo, 10% FBS

Q: Which GI50 does the source give for `Cc1cc(OCCCc2c3n(c4c(-c5c(C)nn(C)c5C)c(Cl)ccc24)[C@H](C)CN(c2cccc4cc(C(=O)O)ccc24)C3=O)cc(C)c1Cl` [Example 187, (R)-5-(7-Chloro-10-(3-(4-chloro-3,5-dimethylphenoxy)propyl)-4-methyl-1-oxo-6-(1,3,5-trimethyl-1H-pyrazol-4-yl)-3,4-dihydropyrazino[1,2-a]indol-2(1H)-yl)-2-naphthoic acid] here?
A: Its GI50 is less than 200 nM.
